Laboratory results from patent publication US9771341B2, “Piperazine carbamates and methods of making and using same” (Abide Therapeutics, Inc., priority 2015, dated 2017).

Key:
[1] = molecular target: T1, MAGL (Mus musculus, UniProt O35678); experiment: Mouse brain proteomes from inhibitor treated mice, MAGL; format: in vivo; conditions: 5 mg/kg oral gavage, C57Bl/6J mice, brain proteome 4 h after administration
T1 construct: Proteomes (mouse brain membrane fraction or cell lysates); from tissue; host or cells: mouse brain membrane fraction (or unspecified cell lysates)
T1 sequence (O35678 1-303): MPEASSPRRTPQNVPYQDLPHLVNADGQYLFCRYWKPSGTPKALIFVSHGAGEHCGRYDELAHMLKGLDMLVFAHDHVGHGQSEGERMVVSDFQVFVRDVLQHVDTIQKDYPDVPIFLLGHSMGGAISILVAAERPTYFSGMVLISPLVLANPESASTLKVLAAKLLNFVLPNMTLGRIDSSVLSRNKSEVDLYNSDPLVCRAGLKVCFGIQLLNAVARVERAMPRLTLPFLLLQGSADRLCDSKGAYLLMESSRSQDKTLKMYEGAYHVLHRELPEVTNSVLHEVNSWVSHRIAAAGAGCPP
Method: (§1) Preparation of Mouse Brain Proteomes from Inhibitor Treated Mice.
(§2) Inhibitors were administered to wild-type C57Bl/6J by oral gavage in a vehicle of polyethylene glycol.

[2] = molecular target: T1, MAGL; experiment: In vitro competitive activity-based protein profiling (mouse), MAGL; format: biochemical; conditions: for inhibition at 1 µM: mouse proteome, in vitro, read-out: % Inhibition at 1 μM MAGL; for IC50: mouse brain membrane fraction or cell lysates, 30 min preincubation at 37° C, FP-Rh probe
Method: (§3) In Vitro Competitive Activity-Based Protein Profiling (Mouse).
(§4) Proteomes (mouse brain membrane fraction or cell lysates) (50 μL, 1.0 mg/mL total protein concentration) were preincubated with varying concentrations of inhibitors at 37° C. After 30 min, FP-Rh (1.0 μL, 50 μM in DMSO) was added and the mixture was incubated for another 30 min at 37° C. Reactions were quenched with SDS loading buffer (50 μL-4×) and run on SDS-PAGE.

[3] = molecular target: T2, FAAH (Mus musculus, UniProt O08914); experiment: In vitro competitive activity-based protein profiling (mouse), FAAH; format: biochemical; conditions: for inhibition at 1 µM: mouse proteome, in vitro; for IC50: mouse brain membrane fraction or cell lysates, 30 min preincubation at 37° C, FP-Rh probe
T2 construct: Proteomes (mouse brain membrane fraction or cell lysates); from tissue; host or cells: mouse brain membrane fraction (or unspecified cell lysates)
T2 sequence (O08914 1-579): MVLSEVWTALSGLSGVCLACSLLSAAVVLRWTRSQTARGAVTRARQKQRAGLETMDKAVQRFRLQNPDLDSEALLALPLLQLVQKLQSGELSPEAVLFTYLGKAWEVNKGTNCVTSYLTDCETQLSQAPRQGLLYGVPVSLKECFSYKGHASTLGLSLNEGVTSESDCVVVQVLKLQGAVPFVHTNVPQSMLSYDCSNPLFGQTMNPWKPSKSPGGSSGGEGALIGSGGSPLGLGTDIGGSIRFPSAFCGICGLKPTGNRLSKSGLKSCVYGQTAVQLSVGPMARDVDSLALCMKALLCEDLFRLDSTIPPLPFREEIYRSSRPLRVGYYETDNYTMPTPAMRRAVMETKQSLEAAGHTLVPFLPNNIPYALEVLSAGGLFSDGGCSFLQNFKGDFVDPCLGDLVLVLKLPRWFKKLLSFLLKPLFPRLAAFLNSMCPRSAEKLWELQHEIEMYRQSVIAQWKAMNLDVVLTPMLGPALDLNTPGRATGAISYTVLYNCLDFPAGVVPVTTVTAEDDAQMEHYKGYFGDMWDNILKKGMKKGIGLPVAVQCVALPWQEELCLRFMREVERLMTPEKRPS
How it was run: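 Mouse brain membrane fraction or cell lysates (1.0 mg/mL protein) preincubated with inhibitors 30 min at 37° C, then FP-Rh probe 30 min at 37° C. SDS-PAGE fluorescence band intensity gave FAAH activity.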

[4] = molecular target: T2, FAAH; experiment: Mouse brain proteomes from inhibitor treated mice, FAAH; format: in vivo; conditions: 5 mg/kg oral gavage, C57Bl/6J mice, brain proteome 4 h after administration
Method: as §1
Inhibitors were administered to wild-type C57Bl/6J by oral gavage in a vehicle of polyethylene glycol. Each animal was sacrificed 4 h following administration and brain proteomes were prepared and analyzed according to previously established methods (See Niphakis, M. J., et al. (2011) ACS Chem. Neurosci. and Long, J. Z., et al. Nat. Chem. Biol. 5:37-44)

[5] = molecular target: T3, ABHD6 (Mus musculus, UniProt Q8R2Y0); experiment: Mouse brain proteomes from inhibitor treated mice, ABHD6; format: in vivo; conditions: 5 mg/kg oral gavage, C57Bl/6J mice, brain proteome 4 h after administration
T3 construct: Proteomes (mouse brain membrane fraction or cell lysates); from tissue; host or cells: mouse brain membrane fraction (or unspecified cell lysates)
T3 sequence (Q8R2Y0 1-336): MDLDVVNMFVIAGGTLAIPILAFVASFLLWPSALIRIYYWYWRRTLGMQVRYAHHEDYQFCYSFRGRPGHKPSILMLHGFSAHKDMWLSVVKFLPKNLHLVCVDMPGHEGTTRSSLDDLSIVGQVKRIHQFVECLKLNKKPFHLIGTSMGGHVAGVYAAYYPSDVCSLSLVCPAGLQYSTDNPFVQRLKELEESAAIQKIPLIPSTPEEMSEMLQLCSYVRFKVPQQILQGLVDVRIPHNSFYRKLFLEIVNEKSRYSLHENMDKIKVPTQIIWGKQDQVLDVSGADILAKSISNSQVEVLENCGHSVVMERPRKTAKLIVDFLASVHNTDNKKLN
Method: as §1, §2

[6] = molecular target: T3, ABHD6; experiment: In vitro competitive activity-based protein profiling (mouse), ABHD6; format: biochemical; conditions: for inhibition at 1 µM: mouse proteome, in vitro, read-out: % Inhibition at 1 μM ABHD6; for IC50: mouse brain membrane fraction or cell lysates, 30 min preincubation at 37° C, FP-Rh probe
Method: as §3, §4

| SMILES | inhibition at 5 mg/kg [1] [%] | inhibition at 1 µM [2] [%] | IC50 [2] [nM] | inhibition at 1 µM [3] [%] | IC50 [3] [nM] | inhibition at 5 mg/kg [4] [%] | inhibition at 5 mg/kg [5] [%] | inhibition at 1 µM [6] [%] | IC50 [6] [nM] |
| --- | --- | --- | --- | --- | --- | --- | --- | --- | --- |
| O=C(OC(C(F)(F)F)C(F)(F)F)N1CCN(Cc2cccc(Cl)c2N2CC[C@H](CF)C2)CC1 [Example 55, 1,1,1,3,3,3-hexafluoropropan-2-yl (S)-4-(3-chloro-2-(3-(fluoromethyl)pyrrolidin-1-yl)benzyl)piperazine-1-carboxylate] | > 75 | > 75 | < 100 | < 25 | > 1000 | < 25 | < 25 | < 25 | > 1000 |
| CS(=O)(=O)N[C@H]1CCN(c2cc(C(F)(F)F)ccc2CN2CCN(C(=O)OC(C(F)(F)F)C(F)(F)F)CC2)C1 [Example 61, 1,1,1,3,3,3-hexafluoropropan-2-yl (S)-4-(2-(3-(methylsulfonamido)pyrrolidin-1-yl)-4-(trifluoromethyl)benzyl)piperazine-1-carboxylate] | > 75 | > 75 | < 100 | < 25 | > 1000 | < 25 | < 25 | < 25 | > 1000 |
| O=C(OC(C(F)(F)F)C(F)(F)F)N1CCN(Cc2ccc(C(F)(F)F)cc2N2CC3CN(C4CC4)CC3C2)CC1 (stereo not drawn) [Example 65, 1,1,1,3,3,3-hexafluoropropan-2-yl 4-(2-(5-cyclopropylhexahydropyrrolo[3,4-c]pyrrol-2(1H)-yl)-4-(trifluoromethyl)benzyl)piperazine-1-carboxylate] | < 25 | > 75 | < 100 | < 25 | > 1000 | < 25 | < 25 | 25 to 75 | > 1000 |
| O=C(OC(C(F)(F)F)C(F)(F)F)N1CCN(Cc2ccc(C(F)(F)F)cc2N2CCCC2CO)CC1 (stereo not drawn) [Example 71, 1,1,1,3,3,3-hexafluoropropan-2-yl 4-(2-(2-(hydroxymethyl)pyrrolidin-1-yl)-4-(trifluoromethyl)benzyl)piperazine-1-carboxylate] | > 75 | > 75 | < 100 | < 25 | > 1000 | < 25 | < 25 | < 25 | > 1000 |
| O=C(O)[C@@H]1CCCN1c1cc(CN2CCN(C(=O)OC(C(F)(F)F)C(F)(F)F)CC2)cc(C(F)(F)F)c1 [Example 86, (3-((4-(((1,1,1,3,3,3-hexafluoropropan-2-yl)oxy)carbonyl)piperazin-1-yl)methyl)-5-(trifluoromethyl)phenyl)proline] | > 75 | > 75 | 100 to 1000 | < 25 | > 1000 | < 25 | > 75 | 25 to 75 | 100 to 1000 |

More lines, now with the values ahead:

| inhibition at 5 mg/kg [1] [%] | inhibition at 1 µM [2] [%] | IC50 [2] [nM] | inhibition at 1 µM [3] [%] | IC50 [3] [nM] | inhibition at 5 mg/kg [4] [%] | inhibition at 5 mg/kg [5] [%] | inhibition at 1 µM [6] [%] | IC50 [6] [nM] | SMILES |
| --- | --- | --- | --- | --- | --- | --- | --- | --- | --- |
| > 75 | > 75 | < 100 | < 25 | > 1000 | < 25 | < 25 | < 25 | > 1000 | O=C(OC(C(F)(F)F)C(F)(F)F)N1CCN(Cc2ccc(C(F)(F)F)cc2N2CC[C@H](CF)C2)CC1 [Example 54, 1,1,1,3,3,3-hexafluoropropan-2-yl (S)-4-(2-(3-(fluoromethyl)pyrrolidin-1-yl)-4-(trifluoromethyl)benzyl)piperazine-1-carboxylate] |
| > 75 | > 75 | < 100 | < 25 | > 1000 | < 25 | < 25 | < 25 | > 1000 | Cc1cccc(CN2CCN(C(=O)OC(C(F)(F)F)C(F)(F)F)CC2)c1N1CC[C@H](CF)C1 [Example 56, 1,1,1,3,3,3-hexafluoropropan-2-yl (S)-4-(2-(3-(fluoromethyl)pyrrolidin-1-yl)-3-methylbenzyl)piperazine-1-carboxylate] |
| > 75 | > 75 | < 100 | < 25 | > 1000 | < 25 | < 25 | < 25 | > 1000 | O=C(OC(C(F)(F)F)C(F)(F)F)N1CCN(Cc2cccc(Cl)c2N2CC3CCC(C2)O3)CC1 [Example 57, 1,1,1,3,3,3-hexafluoropropan-2-yl 4-(2-(8-oxa-3-azabicyclo[3.2.1]octan-3-yl)-3-chlorobenzyl)piperazine-1-carboxylate] |
| > 75 | > 75 | < 100 | < 25 | > 1000 | < 25 | < 25 | < 25 | > 1000 | CS(=O)(=O)N[C@@H]1CCN(c2cc(C(F)(F)F)ccc2CN2CCN(C(=O)OC(C(F)(F)F)C(F)(F)F)CC2)C1 [Example 60, 1,1,1,3,3,3-hexafluoropropan-2-yl (R)-4-(2-(3-(methylsulfonamido)pyrrolidin-1-yl)-4-(trifluoromethyl)benzyl)piperazine-1-carboxylate] |
| 25 to 75 | > 75 | < 100 | < 25 | > 1000 | < 25 | < 25 | < 25 | > 1000 | O=C(OC(C(F)(F)F)C(F)(F)F)N1CCN(Cc2ccc(C(F)(F)F)cc2N2CCC(CO)CC2)CC1 [Example 74, 1,1,1,3,3,3-hexafluoropropan-2-yl 4-(2-(4-(hydroxymethyl)piperidin-1-yl)-4-(trifluoromethyl)benzyl)piperazine-1-carboxylate] |
| < 25 | > 75 | < 100 | < 25 | > 1000 | < 25 | < 25 | < 25 | > 1000 | O=C(O)C1CN(c2cc(C(F)(F)F)ccc2CN2CCN(C(=O)OC(C(F)(F)F)C(F)(F)F)CC2)CCO1 (stereo not drawn) [Example 75, 4-(2-((4-(((1,1,1,3,3,3-hexafluoropropan-2-yl)oxy)carbonyl)piperazin-1-yl)methyl)-5-(trifluoromethyl)phenyl)morpholine-2-carboxylic acid] |
